Data as given in US10227357B2, “Compounds and methods for kinase modulation, and indications therefor” (Plexxikon Inc., priority 2012, dated 2019).

What was measured:
c-kit mutant D816V = molecular target: T1, c-kit mutant D816V (Homo sapiens, UniProt P10721, D816V/DEL694-753); assay: c-Kit mutant D816V biochemical assay, AlphaScreen; settings: c-kit D816V biochemical inhibitory activity; read-out: Biochemical activity (IC50 μM) Kit D816V
T1 construct: residues 551-934, kinase insertion domain residues 694-753 deleted; 6x-histidine (N); made in house; host or cells: E. coli Arctic Express (DE3) RIL (Stratagene)
Summary of the method: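 Eight-point, threefold compound series incubated 30 min at room temperature with E. coli-produced D816V kinase, 10 μM ATP, Mg2+/Mn2+ HEPES buffer pH 7.2 and 5% DMSO. After EDTA stop, streptavidin and anti-phosphotyrosine (PY20) AlphaScreen beads gave the read-out, and IC50 was fitted from the concentration–signal curve.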

c-kit kinase = molecular target: T2, c-kit kinase (Homo sapiens, UniProt P10721); assay: c-Kit biochemical assay, AlphaScreen, 10 μM ATP; settings: c-kit biochemical inhibitory activity; read-out: Biochemical activity (IC50 μM) Kit
T2 construct: The c-kit (or kinase domain thereof) is an active kinase in AlphaScreen; poly-Histidine tag (in-house protein only) (cleaved yes); host or cells: E. coli BL21(DE3)RIL, co-expressed with PTP1B
Summary of the method: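 His-tagged c-Kit expressed in E. coli with co-expressed PTP1B (dephosphorylated), tag removed; 0.1 ng per reaction with biotinylated-peptide substrate in 50 mM HEPES pH 7.2, 5 mM MgCl2, 5 mM MnCl2, 5% DMSO, 10 μM ATP, 1 h at room temperature. Phosphorylation detected by AlphaScreen (streptavidin donor, PY20 acceptor beads); IC50 from 8-point 1:3 dilution series.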

T1 sequence (P10721 with tags, fused parts or gaps DEL694-753/D816V): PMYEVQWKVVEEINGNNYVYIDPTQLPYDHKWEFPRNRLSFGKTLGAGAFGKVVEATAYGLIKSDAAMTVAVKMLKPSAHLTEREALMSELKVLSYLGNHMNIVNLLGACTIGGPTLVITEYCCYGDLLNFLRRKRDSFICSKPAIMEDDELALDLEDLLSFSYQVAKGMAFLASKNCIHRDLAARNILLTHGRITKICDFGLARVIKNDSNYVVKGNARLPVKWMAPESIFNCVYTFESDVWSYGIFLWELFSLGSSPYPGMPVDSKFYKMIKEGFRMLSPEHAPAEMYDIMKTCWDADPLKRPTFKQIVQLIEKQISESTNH
T2 sequence (P10721 26-976): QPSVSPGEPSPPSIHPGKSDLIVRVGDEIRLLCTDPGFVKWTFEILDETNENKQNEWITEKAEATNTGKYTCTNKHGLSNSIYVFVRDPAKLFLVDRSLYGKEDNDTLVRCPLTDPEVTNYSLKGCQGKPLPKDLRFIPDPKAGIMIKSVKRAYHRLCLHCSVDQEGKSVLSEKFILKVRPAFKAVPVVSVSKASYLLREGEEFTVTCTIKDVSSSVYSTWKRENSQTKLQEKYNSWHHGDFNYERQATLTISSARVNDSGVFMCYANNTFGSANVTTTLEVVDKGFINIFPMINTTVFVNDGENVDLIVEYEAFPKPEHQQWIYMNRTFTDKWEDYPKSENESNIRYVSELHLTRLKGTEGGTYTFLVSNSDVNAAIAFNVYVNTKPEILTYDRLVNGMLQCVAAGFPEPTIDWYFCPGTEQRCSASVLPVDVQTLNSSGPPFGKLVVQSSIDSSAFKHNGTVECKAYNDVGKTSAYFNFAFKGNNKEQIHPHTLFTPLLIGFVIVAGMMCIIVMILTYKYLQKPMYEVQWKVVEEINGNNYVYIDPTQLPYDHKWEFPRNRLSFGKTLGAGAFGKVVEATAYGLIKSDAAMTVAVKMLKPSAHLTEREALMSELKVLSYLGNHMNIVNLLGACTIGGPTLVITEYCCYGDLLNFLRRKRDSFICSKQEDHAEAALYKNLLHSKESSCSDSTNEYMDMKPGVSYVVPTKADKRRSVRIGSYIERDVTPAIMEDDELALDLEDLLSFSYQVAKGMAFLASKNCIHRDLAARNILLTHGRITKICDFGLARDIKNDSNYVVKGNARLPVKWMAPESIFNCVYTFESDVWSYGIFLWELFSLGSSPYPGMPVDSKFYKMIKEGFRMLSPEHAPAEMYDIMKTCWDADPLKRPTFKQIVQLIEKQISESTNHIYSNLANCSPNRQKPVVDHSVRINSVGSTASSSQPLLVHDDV

| Structure (SMILES) | IC50 (c-kit mutant D816V) | IC50 (c-kit kinase) |
| --- | --- | --- |
| CS(=O)(=O)Nc1ccc(-c2ncnc3[nH]c(-c4ccc(F)cc4F)cc23)c(F)c1 [P-0333, N-[4-[6-(2,4-difluorophenyl)-7H-pyrrolo[2,3-d]pyrimidin-4-yl]-3-fluoro-phenyl]methanesulfonamide] | 0.0001 to 1 µM | 0.0001 to 1 µM |
| C[C@@H]1CN(c2ncnc3[nH]c(-c4ccncc4)cc23)CCN1C(=O)Nc1ccc(N(C)C)cc1 [P-0066, (2R)-N-(4-dimethylaminophenyl)-2-methyl-4-[6-(4-pyridyl)-7H-pyrrolo[2,3-d]pyrimidin-4-yl]piperazine-1-carboxamide] | 0.0001 to 1 µM | 1 to 10 µM |
| COc1cc2c(-c3ccc(NS(=O)(=O)C4CC4)cc3F)ncnc2cc1OCCCN1CCCCC1 [P-0257, N-[3-fluoro-4-[6-methoxy-7-[3-(1-piperidyl)propoxy]quinazolin-4-yl]phenyl]cyclopropanesulfonamide] | 0.0001 to 1 µM | 1 to 10 µM |
| O=C(NCc1ccc(Cl)cc1)N1CCN(c2ncnc3[nH]c(-c4ccccc4)cc23)CC1 [P-0215, N-[(4-chlorophenyl)methyl]-4-(6-phenyl-7H-pyrrolo[2,3-d]pyrimidin-4-yl)piperazine-1-carboxamide] | 10 to 200 µM | 10 to 200 µM |
| Cc1cc2c(N3CCN(C(=O)N[C@@H](C)c4ccc(F)cc4)C(C)(C)C3)ncnc2[nH]1 [P-0644, N-[(1S)-1-(4-fluorophenyl)ethyl]-2,2-dimethyl-4-(6-methyl-7H-pyrrolo[2,3-d]pyrimidin-4-yl)piperazine-1-carboxamide] | 1 to 10 µM | 10 to 200 µM |
| O=C(Nc1cccnc1)NC1CCN(c2ncnc3[nH]ccc23)CC1 [P-0508, 1-(3-pyridyl)-3-[1-(7H-pyrrolo[2,3-d]pyrimidin-4-yl)-4-piperidyl]urea] | 10 to 200 µM | 10 to 200 µM |
| C[C@H](NC(=O)N1CCN(c2ncnc3cc(-c4ccc(F)cc4)sc23)CC1(C)C)c1ccc(F)cc1 [P-0593, N-[(1S)-1-(4-fluorophenyl)ethyl]-4-[6-(4-fluorophenyl)thieno[3,2-d]pyrimidin-4-yl]-2,2-dimethyl-piperazine-1-carboxamide] | 0.0001 to 1 µM | 10 to 200 µM |
| Cc1cc2c(-c3ccc(NS(=O)(=O)c4ccc(Cl)cc4)cc3)ncnc2[nH]1 [P-0330, 4-chloro-N-[4-(6-methyl-7H-pyrrolo[2,3-d]pyrimidin-4-yl)phenyl]benzenesulfonamide] | 1 to 10 µM | 1 to 10 µM |
| COc1ccc(S(=O)(=O)Nc2ccc(-c3ncnc4cc(OC)c(OCCCN5CCOCC5)cc34)c(F)c2)cc1 [P-0249, N-[3-fluoro-4-[7-methoxy-6-(3-morpholinopropoxy)quinazolin-4-yl]phenyl]-4-methoxy-benzenesulfonamide] | 0.0001 to 1 µM | 1 to 10 µM |
| Cc1ccc(S(=O)(=O)Nc2ccc(-c3ncnc4cc(C5=CCN(C(=O)N6CCOCC6)CC5)sc34)cc2)cc1 [P-0590, 4-methyl-N-[4-[6-[1-(morpholine-4-carbonyl)-3,6-dihydro-2H-pyridin-4-yl]thieno[3,2-d]pyrimidin-4-yl]phenyl]benzenesulfonamide] | 0.0001 to 1 µM | 0.0001 to 1 µM |
| COc1ccc(S(=O)(=O)Nc2ccc(-c3ncnc4[nH]c(-c5ccc(F)cc5)cc34)c(F)c2)cc1 [P-0402, N-[3-fluoro-4-[6-(4-fluorophenyl)-7H-pyrrolo[2,3-d]pyrimidin-4-yl]phenyl]-4-methoxy-benzenesulfonamide] | 0.0001 to 1 µM | 1 to 10 µM |
| O=C(Nc1cccc(C(F)(F)F)c1)NC1CCN(c2ncnc3[nH]ccc23)CC1 [P-0515, 1-[1-(7H-pyrrolo[2,3-d]pyrimidin-4-yl)-4-piperidyl]-3-[3-(trifluoromethyl)phenyl]urea] | 10 to 200 µM | 1 to 10 µM |
| CN(C)c1ncc(-c2cc3c(N4CCC(NS(=O)(=O)c5ccc(OC(F)(F)F)cc5)CC4)ncnc3[nH]2)s1 [P-0673, N-[1-[6-[2-(dimethylamino)thiazol-5-yl]-7H-pyrrolo[2,3-d]pyrimidin-4-yl]-4-piperidyl]-4-(trifluoromethoxy)benzenesulfonamide] | 1 to 10 µM | 1 to 10 µM |
| C[C@H](NC(=O)N1CCN(c2ncnc3[nH]c(-c4ccc(Cl)cc4)cc23)CC1)c1ccc(Cl)cc1 [P-0188, N-[(1S)-1-(4-chlorophenyl)ethyl]-4-[6-(4-chlorophenyl)-7H-pyrrolo[2,3-d]pyrimidin-4-yl]piperazine-1-carboxamide] | 0.0001 to 1 µM | 1 to 10 µM |
| Cc1cc2c(N3CCN(C(=O)N[C@@H](C)c4cccc(Cl)c4)[C@H](C)C3)ncnc2[nH]1 [P-0647, (2R)-N-[(1S)-1-(3-chlorophenyl)ethyl]-2-methyl-4-(6-methyl-7H-pyrrolo[2,3-d]pyrimidin-4-yl)piperazine-1-carboxamide] | 0.0001 to 1 µM | 1 to 10 µM |
| C[C@H](NC(=O)N1CCN(c2ncnc3[nH]c(-c4ccc(F)cc4)cc23)CC1(C)C)c1cccc(OC(F)F)c1 [P-0006, N-[(1S)-1-[3-(difluoromethoxy)phenyl]ethyl]-4-[6-(4-fluorophenyl)-7H-pyrrolo[2,3-d]pyrimidin-4-yl]-2,2-dimethyl-piperazine-1-carboxamide] | 0.0001 to 1 µM | 1 to 10 µM |
| Cc1ccc(S(=O)(=O)Nc2ccc(-c3ncnc4cc(C5=CCNCC5)sc34)cc2)cc1 [P-0611, 4-methyl-N-[4-[6-(1,2,3,6-tetrahydropyridin-4-yl)thieno[3,2-d]pyrimidin-4-yl]phenyl]benzenesulfonamide] | 0.0001 to 1 µM | 0.0001 to 1 µM |
| Cc1cc2c(-c3ccc(NS(=O)(=O)c4ccc(Cl)cc4)cc3F)ncnc2[nH]1 [P-0349, 4-chloro-N-[3-fluoro-4-(6-methyl-7H-pyrrolo[2,3-d]pyrimidin-4-yl)phenyl]benzenesulfonamide] | 1 to 10 µM | 1 to 10 µM |
| Cc1ccc(NS(=O)(=O)c2ccc(-c3ncnc4[nH]c(-c5ccc(F)cc5)cc34)cc2)cc1 [P-0426, 4-[6-(4-fluorophenyl)-7H-pyrrolo[2,3-d]pyrimidin-4-yl]-N-(p-tolyl)benzenesulfonamide] | 1 to 10 µM | 10 to 200 µM |
| COc1ccc([C@@H](C)NC(=O)N2CCN(c3ncnc4[nH]c(-c5ccc(F)cc5)cc34)C[C@H]2C)cc1 [P-0031, (2R)-4-[6-(4-fluorophenyl)-7H-pyrrolo[2,3-d]pyrimidin-4-yl]-N-[(1R)-1-(4-methoxyphenyl)ethyl]-2-methyl-piperazine-1-carboxamide] | 1 to 10 µM | 10 to 200 µM |
| O=C(Nc1ccc(Cl)cc1)N1CCN(c2ncnc3[nH]ccc23)CC1 [P-0171, N-(4-chlorophenyl)-4-(7H-pyrrolo[2,3-d]pyrimidin-4-yl)piperazine-1-carboxamide] | 10 to 200 µM | 10 to 200 µM |
| O=S(=O)(Nc1ccc(-c2ncnc3[nH]c(-c4ccc(F)cc4)cc23)cc1)c1ccc(F)cc1 [P-0404, 4-fluoro-N-[4-[6-(4-fluorophenyl)-7H-pyrrolo[2,3-d]pyrimidin-4-yl]phenyl]benzenesulfonamide] | 0.0001 to 1 µM | 0.0001 to 1 µM |
| Cc1cc2c(-c3ccc(NS(=O)(=O)c4ccc5oncc5c4)cc3)ncnc2[nH]1 [P-0303, N-[4-(6-methyl-7H-pyrrolo[2,3-d]pyrimidin-4-yl)phenyl]-1,2-benzoxazole-5-sulfonamide] | 10 to 200 µM | 10 to 200 µM |
| c1nc(N2CCNCC2)c2cc[nH]c2n1 [P-0233, 4-piperazin-1-yl-7H-pyrrolo[2,3-d]pyrimidine] | 10 to 200 µM | 10 to 200 µM |
